Active and inactive are the calls of the source. The rule behind the calls is not given here.
target: Toxin B (TcdB) glycohydrolase, Clostridioides difficile 630; experiment: TcdB glycohydrolase inhibitors, dose response, biochemical, cherry-pick, plate reader (AID 720512); details: recombinant TcdB glycohydrolase activity

Row | Compound | AC50
1 | CCCNC(=O)N1CC[C@@H]2[C@@H](CO)N(C)c3ccc(-c4ccc(F)cc4)cc3[C@@H]21 | > 42 µM (inactive)
2 | O=C1Nc2ccc(Br)cc2C1Cc1ccccc1F (stereo not drawn) | > 39 µM (inactive)
3 | COCC(=O)N1CC[C@@H]2[C@H]1c1cc(-c3ccc(OC)cc3)ccc1N(C)[C@H]2CO | > 39 µM (inactive)
4 | Oc1ccc(/C=N/N2CCN(Cc3ccccc3)CC2)cc1 | > 39 µM (inactive)
5 | CCOc1cc(/C=N/n2cnnc2)ccc1O | > 39 µM (inactive)
6 | Nc1ncc(S(=O)(=O)c2ccc([N+](=O)[O-])cc2)s1 | > 39 µM (inactive)
7 | CC(C)NC(=O)N1CC[C@@H]2[C@H]1c1cc(-c3ccccc3)ccc1N(C)[C@H]2CO | > 39 µM (inactive)
8 | c1ccc(OCCSc2nnc3sc4ccccc4n23)cc1 | > 39 µM (inactive)
9 | CN1/C(=C/C=C/c2n(C)c3cc([N+](=O)[O-])c([N+](=O)[O-])cc3[n+]2C)C(C)(C)c2ccccc21 | > 39 µM (inactive)
10 | C[N+]1(CCCCSc2ccc(O)cc2)CCCCC1 | > 39 µM (inactive)

same assay, conditions: recombinant TcdB glycohydrolase activity, at 19.5 µM (top of the series)

Row | Compound | activity change, negative = inhibition
11 | COc1cc(C(=O)Nc2scc(-c3ccccc3)c2C(=O)O)cc(OC)c1OC | inactive
12 | CC(=O)Nc1cc(-c2ccc(F)cc2)[nH]n1 | inactive
13 | Cc1cccn2c(=S)[nH]nc12 | inactive
14 | Cc1ccc(C(=O)NCCn2cc(SCC(=O)Nc3cc(C)on3)c3ccccc32)cc1 | inactive
15 | Cc1cc2c(cc1S(=O)(=O)N(C)c1ccccc1)NC(=O)CO2 | inactive
16 | COc1cc(N=Nc2c(C)n(C)n(-c3ccccc3)c2=O)ccc1N | inactive
17 | CS(=O)(=O)Nc1cccc(C2=NN(C(=O)c3ccccc3)C(c3cccs3)C2)c1 (stereo not drawn) | inactive
18 | Cc1ccc(CSc2nc3nc(C)cc(C)c3c(=O)[nH]2)cc1 | inactive
19 | Cc1ccc(NNC(=O)c2ccno2)cc1C | inactive
20 | CC(C)CC(=O)N1CCN(Cc2ccc(Br)cc2)CC1 | inactive
21 | COc1ccc(/C=C\c2onc(C)c2S(=O)(=O)N2CCC(C(=O)NCc3ccco3)CC2)cc1 | inactive
22 | CCN(C(=O)COC(=O)c1cccnc1SC)C1CCCCC1 | inactive
23 | CCC(=O)Nc1ccc2c(c1)OC[C@@H](C)N(C(=O)NC(C)C)C[C@@H](C)[C@@H](OC)CN(C)C2=O | inactive
24 | c1ccc(SCc2nc3ccccc3s2)nc1 | inactive
25 | COc1cccc2sc(NNC(=O)C3COc4ccccc4O3)nc12 (stereo not drawn) | inactive
26 | CSc1cccc(NC(=O)CCc2ccccc2)c1 | inactive
27 | C[C@@H]1CN([C@@H](C)CO)S(=O)(=O)c2ccc(-c3ccncc3)cc2O[C@@H]1CN(C)Cc1ccc(Oc2ccccc2)cc1 | inactive
28 | Cn1c(SCc2nnc(-c3ccccc3)o2)nc2ccccc21 | inactive
29 | COc1ccc(Cl)cc1NC(=O)CSc1nnc(-c2ccco2)o1 | inactive
30 | O=C(Cn1cc(COc2ccc(Cl)c(Cl)c2)nn1)NS(=O)(=O)c1ccccc1OC(F)(F)F | inactive
31 | O=c1onc(-c2ccccc2)n1Cc1ccc([N+](=O)[O-])cc1 | inactive

Row | Compound | activity change, negative = inhibition
32 | Cc1cc(C(C)(C)C)cc(CN2CCN(S(=O)(=O)c3cccs3)CC2)c1O | inactive
33 | Cc1ccc(C2=NS(=O)(=O)N(C)C(C(=O)NCc3ccc4c(c3)OCO4)=C2)cc1 | inactive
34 | C/C(=N\OCC(=O)Nc1nc2ccccc2s1)c1ccccc1 | inactive
35 | CCOC(=O)c1ccc(NC(=O)Oc2cc(C)c(Cl)cc2C(C)C)cc1 | inactive
36 | CCCCN(C)c1c(C)nc2ccc(C(=O)NCc3cccs3)cn12 | inactive
37 | O=c1[nH]nc(-c2ccc(F)cc2)cc1Cc1ccccc1 | inactive
38 | C[C@H](CO)N1C[C@H](C)[C@@H](CN(C)C(=O)Nc2ccc(C(F)(F)F)cc2)Oc2ccc(NC(=O)C3CCCCC3)cc2C1=O | inactive
39 | O=C1/C(=C/c2cccnc2)SC(=NCc2ccccc2)N1Cc1ccccc1 | inactive
40 | COc1ccc(C2=NS(=O)(=O)N(C)C(C(=O)NCc3ccccc3)=C2)cc1OC | inactive
41 | COc1cc(Cn2nnc3ccccc32)ccc1O | inactive
42 | S=C(NCCc1ccccc1)Nc1ncccn1 | inactive
43 | Cc1nn(CCOc2ccccc2)c(=O)n1-c1ccc(Cl)cc1 | inactive
44 | Cn1c(SCC(=O)c2cc3ccccc3o2)nnc1-c1ccccc1 | inactive
45 | CCCCn1c(CN2CCN(C(=O)c3ccco3)CC2)nc2c1c(=O)n(C)c(=O)n2C | inactive
46 | COc1ccc(S(=O)(=O)Nc2ccc3oc(C)c(C(=O)O)c3c2)cc1 | inactive
47 | Cc1ccn(CCC(=O)NC2CC(C)(C)Cc3c2cnn3-c2ccccc2C)n1 (stereo not drawn) | inactive
48 | CCOC(=O)N1CCN(C(=S)NC(=O)c2ccc(F)c(F)c2)CC1 | inactive
49 | CN(C)c1ccc(Cl)c(NC(N)=S)c1 | inactive
50 | COc1ccc2cc3c(nc2c1)OCC3 | inactive
51 | O=C(NCc1nnc2c(C(F)(F)F)cc(Cl)cn12)c1cccnc1 | inactive
52 | Cc1ccc(/C=C/c2onc(C)c2S(=O)(=O)N2CCC(C(=O)N3CCCCC3)CC2)cc1 | inactive

Row | Compound | activity change, negative = inhibition
53 | O=C(OCC(=O)N1CCCc2ccccc21)c1ccc(C(F)(F)F)cc1 | inactive
54 | O=S(=O)(Nc1ccc(O)cc1)c1cccc2cccnc12 | inactive
55 | COc1ccc(/C=C/c2onc(C)c2S(=O)(=O)N2CCC(C(=O)N3CCC(C)CC3)CC2)cc1 | inactive
56 | O=C(Cc1ccccn1)c1ccncc1 | inactive
57 | CNC(=O)C[C@H]1CC[C@@H]2[C@@H](COc3ccc(NC(=O)c4ccc(OC)cc4)cc3C(=O)N2C)O1 | inactive
58 | O=C(C[C@H]1C[C@H]2c3cc(NC(=O)c4ccc5c(c4)OCO5)ccc3O[C@H]2[C@@H](CO)O1)NCc1cccc(F)c1 | inactive
59 | O=C(Nc1ccc(O)cc1)c1ccc2c(c1)C(=O)N(Cc1ccco1)C2=O | inactive
60 | Oc1ccc(/C=N/Nc2ncnc3nc[nH]c23)cc1 | inactive
61 | Cc1ccc(S(=O)(=O)Oc2cccc(/C=N/Nc3ccc(C(=O)O)cc3)c2)cc1 | inactive
62 | Cn1c(=O)c2c([nH]c(=S)n2Cc2ccc(Cl)cc2)n(C)c1=O | inactive
63 | Cc1ccc(/C=N/NC(=O)c2cccc(S(=O)(=O)Nc3ccccc3Cl)c2)o1 | inactive
64 | CC(=O)Nc1ccc(N(C(=O)c2ccco2)C(C(=O)NC2CCCC2)c2cccs2)cc1 (stereo not drawn) | inactive
65 | CN1C=CC(=CC=C2C=CC(=O)C=C2)C=C1 | inactive
66 | CC(C)(C)OCC(O)CN1CCN(C(=O)c2ccccc2)CC1 (stereo not drawn) | inactive
67 | O=C(O)c1cccnc1SCc1ccccc1Cl | inactive
68 | COc1cc(/C(C)=N/NC(=O)CSc2nnc(C)s2)ccc1O | inactive
69 | Oc1ccc(/C=N/n2cc(-c3ccccc3)[nH]c2=S)cc1 | inactive
70 | CC1CN=C(Nc2cccc(S(=O)(=O)N(C)C)c2)S1 (stereo not drawn) | inactive
71 | CCOC(=O)[C@@H]1[C@H]2COc3ccc(Br)cc3[C@@H]2N2C(=O)N(c3cccc(F)c3)C(=O)[C@]12C | inactive
72 | COc1cc(/C=N/NC(=O)Cn2nnc3ccccc32)ccc1O | inactive
73 | COc1ccc(Cl)cc1NC(=O)Cn1c(NCCO)nc2ccccc21 | inactive

Row | Compound | activity change, negative = inhibition
74 | O=C(NC(=S)Nc1ccc(O)cc1)c1ccccc1Cl | inactive
75 | CCOc1ccc(NC(=O)c2ccc(CC)s2)c([N+](=O)[O-])c1 | inactive
76 | O=C(CSc1cccc2cccnc12)N/N=C/c1ccc(O)cc1 | inactive
77 | CCc1[nH]c(=O)c(C#N)c2c1CCCC2 | inactive
78 | O=C(N/N=C/c1ccc(O)c(O)c1)C1CC1 | inactive
79 | CC(=O)Oc1ccc2nc(/C=C/c3ccccc3)oc(=O)c2c1 | inactive
80 | Clc1ccc(-c2nc3ccc(Cl)cn3c2Cc2ccccc2)cc1 | inactive
81 | Nc1ncnc2[nH]c(=S)[nH]c12 | inactive
82 | Cc1cccc(/C=C/c2onc(C)c2S(=O)(=O)N2CCC(C(=O)N3CCCCCC3)CC2)c1 | inactive
83 | Cc1ccc(Cc2c(-c3ccc(C)cc3)nc3ccc(Cl)cn23)cc1 | inactive
84 | COc1ccc(C(=O)Nc2cc(Cl)ccc2C(=O)O)cc1 | inactive
85 | O=S(=O)(Oc1ccccc1-c1ccccc1)c1ccccc1 | inactive
86 | CCOc1ccc2c(C)nc(NC3=NC(C)(C)C=C(C)N3)nc2c1 | inactive
87 | Cc1onc(-c2c(F)cccc2Cl)c1C(=O)Nc1nnc(C(F)(F)F)s1 | inactive
88 | O=C(OCC(=O)N1CCCCC1)c1ccccc1SCC(=O)N1CCCCC1 | inactive
89 | CCOc1ccc(C(CC(=O)O)NC(=O)C23CC4CC(CC(C4)C2)C3)cc1OC (stereo not drawn) | inactive
90 | COc1ccc(NC2CCCN(C(=O)CN3CCOC3=O)C2)cc1OC (stereo not drawn) | inactive
91 | NC(=O)C1(Nc2ccc(-c3ccc(Br)cc3)cc2)CCCC1 | inactive
92 | CC1C(=O)C(C)C(c2ccc([N+](=O)[O-])cc2)NC1c1ccc([N+](=O)[O-])cc1 (stereo not drawn) | inactive
93 | COc1ccc(NS(=O)CCCc2ccccc2)cc1 (stereo not drawn) | inactive

— PubChem BioAssay AID720512 (Broad Institute, 2013)
